Values belong to the compound of their own block, whether it stands above or below them.
Columns and labels:
[1] = Metabolic stability in rat liver microsomes; format: in vitro ADME
PDE1 Q421A = PDE1 Q421A (Homo sapiens, UniProt Q14123, Q427A); assay: Inhibition of PDE1 mutant by 10a; format: biochemical; settings: Q421A vs wild type
PDE1 F392A = PDE1 F392A (Homo sapiens, UniProt Q14123, F398A); assay: Inhibition of PDE1 mutant by 10a; format: biochemical
PDE1 Y228A = PDE1 Y228A (Homo sapiens, UniProt Q14123, Y227A); assay: Inhibition of PDE1 mutant by 10a; format: biochemical
Sequence of PDE1 Y228A (Q14123 147-531 Y227A): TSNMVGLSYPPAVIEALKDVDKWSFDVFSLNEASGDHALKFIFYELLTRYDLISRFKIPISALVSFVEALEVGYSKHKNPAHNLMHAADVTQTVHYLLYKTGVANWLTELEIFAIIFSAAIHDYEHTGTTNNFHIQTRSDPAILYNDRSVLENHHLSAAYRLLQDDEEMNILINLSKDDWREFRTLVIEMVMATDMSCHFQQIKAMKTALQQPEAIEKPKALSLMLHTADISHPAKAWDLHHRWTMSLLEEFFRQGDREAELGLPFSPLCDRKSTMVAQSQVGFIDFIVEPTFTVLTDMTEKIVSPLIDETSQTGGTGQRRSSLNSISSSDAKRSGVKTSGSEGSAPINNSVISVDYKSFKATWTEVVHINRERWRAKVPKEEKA

Sequence of PDE1 F392A (Q14123 147-531 F398A): as the sequence (Q14123 147-531 Y227A) above, with A81Y, F252A counted along it
Sequence of PDE1 Q421A (Q14123 147-531 Q427A): as the sequence (Q14123 147-531 Y227A) above, with A81Y, Q281A counted along it

half-life [1]: 13.5 min
Structure (SMILES): O=C1O/C(=C\c2cc(F)ccc2OCCN2CC[C@@H](F)C2)c2cc(Cc3cccc(F)c3)[nH]c(=O)c21 [11c]

loss of binding affinity (PDE1 Q421A): 8 fold
IC50 (PDE1 F392A): 231 nM
loss of binding affinity (PDE1 F392A; F392A vs wild type): 14 fold
IC50 (PDE1 Y228A): 43 nM
loss of binding affinity (PDE1 Y228A; Y228A vs wild type): ~3 fold
Structure (SMILES): Cc1cc2c(c(=O)[nH]1)C(=O)O/C2=C\c1cc(F)ccc1OC(C)C [compound 10a]

half-life [1]: 8 min
Structure (SMILES): Cc1cc2c(c(=O)[nH]1)C(=O)O/C2=C\c1cc(F)ccc1OCCN1CCOCC1 [compound 11a]

half-life [1]: 29.8 min
Structure (SMILES): O=C1O/C(=C\c2cc(F)ccc2OCCN2CCOCC2)c2cc(Cc3cccc(F)c3)[nH]c(=O)c21 [compound 11b]

Source: paper PMC11725145 (Acta Pharmaceutica Sinica. B, 2024)
